Source: ChEMBL document CHEMBL6153094, “Rationally designed highly amphipathic antimicrobial peptides demonstrating superior bacterial selectivity relative to the corresponding α-helix peptide” (Eur J Med Chem, 2025)
Activity calls are given as the source filed them. The calls are words filed in the database; no cut-off is given here.

Columns and labels:
Pseudomonas aeruginosa [1] = test: Antimicrobial activity against Pseudomonas aeruginosa ATCC 27853 assessed as inhibition of visible bacterial growth incubated for 18 hrs by broth microdilution method; type: functional
Staphylococcus aureus [2] = test: Antimicrobial activity against methicillin-drug resistant Staphylococcus aureus ATCC 33591 assessed as concentration required to eliminate 90% bacteria incubated for 18 hrs by broth-microdilution method; type: functional
Staphylococcus aureus [3] = test: Antimicrobial activity against methicillin-drug resistant Staphylococcus aureus clinical isolate 48 assessed as concentration required to eliminate 90% bacteria incubated for 18 hrs by broth-microdilution method; type: functional
Staphylococcus aureus [4] = test: Antimicrobial activity against methicillin-drug resistant Staphylococcus aureus clinical isolate 936 assessed as concentration required to eliminate 90% bacteria incubated for 18 hrs by broth-microdilution method; type: functional
Pseudomonas aeruginosa [5] = test: Antimicrobial activity against multi-drug resistant Pseudomonas aeruginosa clinical isolate 119 assessed as concentration required to eliminate 90% bacteria incubated for 18 hrs by broth-microdilution method; type: functional
Pseudomonas aeruginosa [6] = test: Antimicrobial activity against multi-drug resistant Pseudomonas aeruginosa clinical isolate 124 assessed as concentration required to eliminate 90% bacteria incubated for 18 hrs by broth-microdilution method; type: functional
Staphylococcus aureus [7] = test: Bactericidal activity against Staphylococcus aureus ATCC 25923 at 2 times of MIC incubated for 18 hrs in presence of 20 microg/ml of trypsin by absorbance based assay; type: functional, organism-based
Pseudomonas aeruginosa [8] = test: Antibacterial activity against Pseudomonas aeruginosa ATCC 27853 assessed as fold change in MIC incubated for 18 hrs in presence of KCl by Mueller-Hinton broth based assay; type: functional
Pseudomonas aeruginosa [9] = test: Antibacterial activity against Pseudomonas aeruginosa ATCC 27853 incubated for 18 hrs in presence of MgCl2 by Mueller-Hinton broth based assay; type: functional, organism-based
Pseudomonas aeruginosa [10] = test: Antibacterial activity against Pseudomonas aeruginosa ATCC 27853 incubated for 18 hrs in presence of FeCl3 by Mueller-Hinton broth based assay; type: functional, organism-based
Pseudomonas aeruginosa [11] = test: Antibacterial activity against Pseudomonas aeruginosa ATCC 27853 assessed as fold change in MIC incubated for 18 hrs in presence of 2.5% serum by broth microdilution method; type: functional
Pseudomonas aeruginosa [12] = test: Antibacterial activity against Pseudomonas aeruginosa ATCC 27853 assessed as fold change in MIC incubated for 18 hrs in presence of 5% serum by broth microdilution method; type: functional
Staphylococcus aureus [13] = test: Antibacterial activity against Staphylococcus aureus ATCC 25923 assessed as fold change in MIC incubated for 18 hrs in presence of 2.5% serum by broth microdilution method; type: functional
Pseudomonas aeruginosa [14] = test: Antibiofilm activity in Pseudomonas aeruginosa ATCC 27853 assessed as inhibition of biofilm formation at 1/2 times of MIC incubated for 24 hrs by crystal violet staining based analysis; type: functional, organism-based
Staphylococcus aureus [15] = test: Antibiofilm activity in Staphylococcus aureus ATCC 25923 assessed as inhibition of biofilm formation at 1/2 times of MIC incubated for 24 hrs by crystal violet staining based analysis relative to control; type: functional
Staphylococcus aureus [16] = test: Antibiofilm activity in Staphylococcus aureus ATCC 25923 assessed as inhibition of biofilm formation at 4 times of MIC incubated for 24 hrs by crystal violet staining based analysis relative to control; type: functional
Pseudomonas aeruginosa [17] = test: Resistance fold, ratio of MIC for Pseudomonas aeruginosa ATCC 27853 measured after 20 passages in presence of gentamicin to MIC for Pseudomonas aeruginosa ATCC 27853 measured immediately in presence of gentamicin; type: functional
Staphylococcus aureus [18] = test: Synergistic antimicrobial activity against gentamicin-resistant Staphylococcus aureus ATCC 25923 assessed as fractional inhibitory concentration index incubated for 18 hrs in presence of gentamicin by checkerboard microdilution method; type: functional
Pseudomonas aeruginosa [19] = test: Bactericidal activity against Pseudomonas aeruginosa ATCC 27853 assessed as bacterial killing at 1 to 4 times of MIC by time-kill kinetics assay; type: functional, organism-based; details: time <= 360.0 min
Pseudomonas aeruginosa [20] = test: Antibacterial activity against Pseudomonas aeruginosa ATCC 27853 assessed as inhibition of bacterial growth compound pretreated with 256 microg/ml of LPS for 1 hrs followed by bacterial addition and measured after 18 hrs by absorbance based assay; type: functional, organism-based
Cell membrane [21] = test: Disruption of outer membrane integrity in Pseudomonas aeruginosa ATCC 27853 assessed as increase in fluorescence intensity at 1 times of MIC measured for 12 mins by NPN uptake assay; type: subcellular
Cell membrane [22] = test: Disruption of outer membrane integrity in Pseudomonas aeruginosa ATCC 27853 assessed as increase in fluorescence intensity at 2 times of MIC measured for 12 mins by NPN uptake assay; type: subcellular
Pseudomonas aeruginosa [23] = test: Induction of morphological changes in Pseudomonas aeruginosa ATCC 27853 assessed as membrane disruption at 2 times of MIC incubated for 30 to 120 mins by SEM analysis; type: functional, organism-based; details: time 30-120 min
Pseudomonas aeruginosa [24] = test: Induction of morphological changes in Pseudomonas aeruginosa ATCC 27853 assessed as cellular fragmentation at 2 times of MIC incubated for 30 to 120 mins by SEM analysis; type: functional, organism-based; details: time 30-120 min
Staphylococcus aureus [25] = test: Induction of morphological changes in Staphylococcus aureus ATCC 25923 assessed as cell adhesion at 2 times of MIC incubated for 30 to 120 mins by SEM analysis; type: functional, organism-based; details: time 30-120 min
Staphylococcus aureus [26] = test: Induction of morphological changes in Staphylococcus aureus ATCC 25923 assessed as membrane disruption at 2 times of MIC incubated for 30 to 120 mins by SEM analysis; type: functional, organism-based; details: time 30-120 min
Staphylococcus aureus [27] = test: Induction of morphological changes in Staphylococcus aureus ATCC 25923 assessed as cellular fragmentation at 2 times of MIC incubated for 30 to 120 mins by SEM analysis; type: functional, organism-based; details: time 30-120 min
Staphylococcus aureus [28] = test: Induction of morphological changes in Staphylococcus aureus ATCC 25923 assessed as blister formation at 2 times of MIC incubated for 30 to 120 mins by SEM analysis; type: functional, organism-based; details: time 30-120 min
[29] = Toxicity in male Balb/c mouse assessed as effect on survival at 63.5 mg/kg, ip measured after 7 days; type: organism-based; details: in vivo, 168 h, time 7 day
Staphylococcus aureus [30] = test: Antibacterial activity against methicillin-resistant Staphylococcus aureus ATCC 33591 infected in male Balb/c mouse model of full thickness skin wound assessed as reduction in bacteria in skin wound at 1 mg/ml pre-infected with bacteria for 1 hrs followed by compound administration at 1,12 and 36 hrs post infection and measured after 10 days by photographic analysis; type: functional, organism-based; details: time 10.0 day
Staphylococcus aureus [31] = test: Antibacterial activity against methicillin-resistant Staphylococcus aureus ATCC 33591 infected in male Balb/c mouse model of full thickness skin wound assessed as reduction in bacteria in skin wound at 1 mg/ml pre-infected with bacteria for 1 hrs followed by compound administration at 1,24,48 and 72 hrs post infection and measured after 10 days by photographic analysis; type: functional, organism-based; details: time 10.0 day
Staphylococcus aureus [32] = test: Antibacterial activity against methicillin-resistant Staphylococcus aureus ATCC 33591 infected in male Balb/c mouse model of full thickness skin wound assessed as reduction in number of inflammatory cells in skin at 1 mg/ml pre-infected with bacteria for 1 hrs followed by compound administration at 1,12 and 36 hrs post infection and measured after 10 days by H and E staining based analysis; type: functional, organism-based; details: time 10.0 day
Staphylococcus aureus [33] = test: Antibacterial activity against methicillin-resistant Staphylococcus aureus ATCC 33591 infected in male Balb/c mouse model of full thickness skin wound assessed as decrease in cell necrosis in skin at 1 mg/ml pre-infected with bacteria for 1 hrs followed by compound administration at 1,12 and 36 hrs post infection and measured after 10 days by H and E staining based analysis; type: functional, organism-based; details: time 10.0 day

H-RRWFRRWRRWFR-NH2 showed an MIC (Pseudomonas aeruginosa [1]) of 2 µM, an EC90 (Staphylococcus aureus [2]) of 2260 nM and an EC90 (Staphylococcus aureus [3]) of 2780 nM. The EC90 (Staphylococcus aureus [4]) was 5.22 µM, the EC90 (Pseudomonas aeruginosa [5]) was 566 nM and the EC90 (Pseudomonas aeruginosa [6]) was 780 nM. For the same substance, the Activity (Staphylococcus aureus [7]) was “inactive”, the “fold change (FC)” value (Pseudomonas aeruginosa [8]) was 2 and the Activity (Pseudomonas aeruginosa [9]) was “Active”. For the same substance, the Activity (Pseudomonas aeruginosa [10]) was “Active”, the “fold change (FC)” value (Pseudomonas aeruginosa [11]) was 32 and the “fold change (FC)” value (Pseudomonas aeruginosa [12]) was 64. The “fold change (FC)” value (Staphylococcus aureus [13]) was 32, the Activity (Pseudomonas aeruginosa [14]) was “inactive” and the “inhibition (INH)” value (Staphylococcus aureus [15]) was 35%. The “inhibition (INH)” value (Staphylococcus aureus [16]) was about 75%, the “fold change (FC)” value (Pseudomonas aeruginosa [17]) was “<=2” and the “fractional inhibitory concentration index (FICI)” value (Staphylococcus aureus [18]) was 0.25. The Activity (Pseudomonas aeruginosa [19]) was “Time-dependent-effect”, the Activity (Pseudomonas aeruginosa [20]) was “Not active; Compound Binds To Lps To Exert Its Activity” and the Activity (Cell membrane [21]) was “Active”. For the same substance, the Activity (Cell membrane [22]) was “Active”, the Activity (Pseudomonas aeruginosa [23]) was “Active” and the Activity (Pseudomonas aeruginosa [24]) was “Active”. For the same substance, the Activity (Staphylococcus aureus [25]) was “Active”, the Activity (Staphylococcus aureus [26]) was “Active” and the Activity (Staphylococcus aureus [27]) was “Active”. For the same substance, the Activity (Staphylococcus aureus [28]) was “Active”, the Activity [29] was “Non-toxic” and the Activity (Staphylococcus aureus [30]) was “Active; Obvious Facilitation Of Wound Healing Not Observed”. For the same substance, the Activity (Staphylococcus aureus [31]) was “Active; Obvious Facilitation Of Wound Healing Not Observed”, the Activity (Staphylococcus aureus [32]) was “Active” and the Activity (Staphylococcus aureus [33]) was “Active”.
